Source: article PMC5462475, “A conformational switch high-throughput screening assay and allosteric inhibition of the flavivirus NS2B-NS3 protease” (PLoS Pathogens, 2017)
“Also recorded” adds a separate entry of the source.

Assays:
N2CN3N A125W mutant = target: T1, N2CN3N A125W mutant (UniProt P08659+P14340); type: biochemical; details: A125W mutant 150 nM, NPGB 30 μM
T1 construct: pairs of primers of 1394F and 1440C for NS2B and 1476F and 1660C for NS3; made in house; host or cells: Escherichia coli Rosetta 2(DE3)

N2CN3N A125C mutant = target: T2, N2CN3N A125C mutant (UniProt P08659+P14340); type: biochemical
T2 construct: pairs of primers of 1394F and 1440C for NS2B and 1476F and 1660C for NS3; made in house; host or cells: Escherichia coli Rosetta 2(DE3)

[1] = target: T3, full-length firefly luciferase (FLuc) (Photinus pyralis, UniProt P08659); type: biochemical; details: FLuc 150 nM, compound 30 μM
T3 construct: or full length Firefly luciferase (150 nM final concentration)

[2] = target: T4, DENV2 NS2B-CLuc-NS3-119-NLuc-NS3 120-to-NS3_C (N2CN3N) (UniProt P08659+P14340); type: biochemical; details: for suppression of NPGB-induced SLC enhancement / effect of compound alone on background SLC: compound 40 μM; for suppression of NPGB-induced SLC enhancement: N2CN3N 150 nM; for effect of compound alone on background SLC: no NPGB, compared to DMSO; for inhibition of NPGB-induced SLC enhancement, concentration series: serial dilution of compound
T4 construct: pairs of primers of 1394F and 1440C for NS2B and 1476F and 1660C for NS3; made in house; host or cells: Escherichia coli Rosetta 2(DE3)

DENV2 [3] = experiment: microbe, parasite or virus in culture; details: Dengue virus, A549, 48 h, read-out: EC50, DENV2 viral reduction
DENV2 [4] = details: A549 cells, compound at 1, 10 and 100 μM, 48 h post-infection
in vitro = details: human

T4 sequence (P08659 whole entry, looked up, other chains not shown): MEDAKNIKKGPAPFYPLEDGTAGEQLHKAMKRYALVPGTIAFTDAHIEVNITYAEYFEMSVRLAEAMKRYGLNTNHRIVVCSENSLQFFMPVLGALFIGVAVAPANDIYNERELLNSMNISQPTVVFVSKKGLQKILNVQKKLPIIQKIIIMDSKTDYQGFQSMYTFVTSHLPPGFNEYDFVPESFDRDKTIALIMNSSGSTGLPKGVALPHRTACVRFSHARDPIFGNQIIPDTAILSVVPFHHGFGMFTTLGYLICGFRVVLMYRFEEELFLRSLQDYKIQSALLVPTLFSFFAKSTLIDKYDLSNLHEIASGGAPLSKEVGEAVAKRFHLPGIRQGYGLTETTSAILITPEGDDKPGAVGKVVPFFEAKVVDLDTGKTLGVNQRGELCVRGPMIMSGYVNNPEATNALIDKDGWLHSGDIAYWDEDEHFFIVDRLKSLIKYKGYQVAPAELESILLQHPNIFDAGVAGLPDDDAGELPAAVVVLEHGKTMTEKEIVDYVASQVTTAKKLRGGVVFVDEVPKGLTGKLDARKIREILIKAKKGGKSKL
T3 sequence (P08659 whole entry): as the sequence (P08659 whole entry, looked up, other chains not shown) above

Nitrophenyl p-guanidinobenzoate [NPGB]
SLC enhancement upon addition of active-site inhibitor (N2CN3N A125W mutant): SLC enhancement was not observed
SLC enhancement compared to DMSO control (N2CN3N A125C mutant; A125C mutant 150 nM, NPGB 30 μM): 2.2 fold
effect on luciferase activity of full-length FLuc [1]: do not affect the luciferase activity; also recorded: did not have any effects
SLC enhancement compared to DMSO control ([2]; WT N2CN3N 150 nM, NPGB 30 μM): 4.2 fold

Cn1ccc(=Nc2ccc(NC(=O)c3ccc(N=c4ccn(C)c5ccc([N+](=O)[O-])cc45)cc3)cc2)cc1 [NSC260594]
EC50 (DENV2 [3]): 13.5 µM
suppression of NPGB-induced SLC enhancement ([2]; NPGB 30 μM): abolish the SLC enhancement induced by NPGB to the background level
effect of compound alone on background SLC [2]: did not have significant effect on background SLC
inhibition of NPGB-induced SLC enhancement, concentration series ([2]; NPGB 30 μM): did not inhibit the NPGB-induced SLC enhancement until very high concentration
DENV2 viral production (titer) relative to DMSO control (DENV2 [4]): significantly reduced
CC50 (in vitro): > 500 µM

O=C(O)c1cc(SSc2ccc([N+](=O)[O-])c(C(=O)O)c2)ccc1[N+](=O)[O-] [DTNB, 5,5'-dithio-bis-[2-nitrobenzoic acid]]
effect on baseline SLC signal of A125C mutant (N2CN3N A125C mutant; DTNB 30 μM alone): only slightly decreased the baseline SLC signal
effect on NPGB-triggered SLC enhancement of A125C mutant (N2CN3N A125C mutant; DTNB 30 μM with NPGB 30 μM): completely abolished the SLC enhancement
effect on luciferase activity of full-length FLuc [1]: do not affect the luciferase activity; also recorded: did not significantly affect the luciferase activity
effect on NPGB-triggered SLC enhancement of WT N2CN3N [2]: significantly abolished the active site inhibitor NPGB-triggered SLC enhancement
effect on luciferase (baseline SLC) activity of WT N2CN3N [2]: did not significantly affect the luciferase activity

O=C(Nc1ccc(Nc2ccncc2)cc1)c1ccc(Nc2ccnc3ccc([N+](=O)[O-])cc23)cc1 [NSC146771]
EC50 (DENV2 [3]): > 100 µM
suppression of NPGB-induced SLC enhancement ([2]; NPGB 30 μM): abolish the SLC enhancement induced by NPGB to the background level
effect of compound alone on background SLC [2]: did not have significant effect on background SLC
inhibition of NPGB-induced SLC enhancement, concentration series ([2]; NPGB 30 μM): did not inhibit the NPGB-induced SLC enhancement until very high concentration
DENV2 viral production (titer) relative to DMSO control (DENV2 [4]): no appreciable effect; also recorded: did not show any inhibition
CC50 (in vitro): 82 µM
